Results on 22 molecules are retold here after patent US6562978B1, “Cyclic amine compounds as CCR5 antagonists” (Takeda Chemical Industries, Ltd., priority 1999, dated 2003).

Structures are written as SMILES. Structures can show the parent of a compound that is named as a salt.

For one assay, the target named is T1, human CCR5 (Homo sapiens, UniProt P51681).
T1 construct: expressed in transfected cells; whole cells in the well
T1 sequence (P51681 whole entry): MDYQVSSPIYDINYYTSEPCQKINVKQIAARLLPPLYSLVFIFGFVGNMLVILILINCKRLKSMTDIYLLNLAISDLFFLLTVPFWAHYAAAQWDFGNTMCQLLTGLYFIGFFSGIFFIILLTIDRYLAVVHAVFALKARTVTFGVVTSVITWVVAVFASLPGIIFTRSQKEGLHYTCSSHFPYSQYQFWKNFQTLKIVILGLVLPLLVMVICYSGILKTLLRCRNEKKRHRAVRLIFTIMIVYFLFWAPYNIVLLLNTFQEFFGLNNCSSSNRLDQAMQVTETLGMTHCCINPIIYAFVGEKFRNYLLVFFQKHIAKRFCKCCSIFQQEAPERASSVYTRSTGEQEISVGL
Put plainly: CCR5 binding assay: inhibition of [125I]-RANTES binding to CHO/CCR5 cells. The following applies: 1.0 μM test compound, 100 pM [125I]-RANTES, room temperature 40 minutes. The method, then:
(1) Cloning of Human CCR5 Chemokine Receptor
Cloning of CCR5 gene was carried out by PCR (polymerase chain reaction) from human spleen cDNA. With using 0.5 ng of spleen cDNA (Toyobo, QUICK-Clone cDNA) as template, PCR was performed in DNA Thermal Cycler 480 (Perkin-Elmer) (reaction conditions: 30 cycles of 95° C. for 1 minute, 60° C. for 1 minute, and 75° C. for 5 minutes) by adding primer set, 5′-[…]-3′ (25 pmol) and 5′-[…]-3′ (25 pmol), which were designed referring to nucleotide sequence of CCR5 gene reported by Samson et al. (Biochemistry, 35(11), 3362-3367 (1996)) and by using TaKaRa EX Taq (Takara Shuzo). The resultant PCR product was subjected to agarose gel electrophoresis to collect about 1.0 kb DNA fragment, which was subjected to Original TA Cloning Kit (Funakoshi) to carry out cloning of CCR5 gene.
(2) Preparation of Plasmid for Expression of Human […]
The plasmid obtained in the above (1) was digested with restriction enzymes XbaI (Takara Shuzo) and BamHI (Takara Shuzo) and subjected to agarose gel electrophoresis to collect about 1.0 kb DNA fragment. The DNA fragment was mixed with plasmid pcDNA3.1 (Funakoshi) for expression in animal cells, said plasmid being digested with XbaI and BamHI, and they were ligated with DNA Ligation Kit Ver.2 (Takara Shuzo). The resulting plasmid was subjected to transformation of competent cell of E. coli JM109 (Takara Shuzo) to obtain plasmid pCKR5.
(3) Introduction of Plasmid for Expression of Human CCR5 into CHO-K1 Cell and Expression of said Plasmid in CHO-KY Cell
CHO-K1 cells were grown in 750 ml of tissue culture flask (Becton Dickinson) using Ham's F12 medium (Nihon Pharmaceutical) containing 10% fetal calf serum (Life Tech Oriental) and took off with 0.5 g/L trypsin-0.2 g/L EDTA (Life Tech Oriental). The cells were washed with PBS (Life Tech Oriental), centrifuged (1000 rpm, 5 minutes), and suspended in PBS. With using Gene Pulser (Bio-Rad Laboratories), DNA was introduced into the cells under the conditions shown below. That is, to the cuvette of 0.4 cm gap were added 8×10^6 cells and 10 μg of plasmid pCKR5 for expression of human CCR5, and electroporation was carried out under 0.25 kV of voltage and […] of capacitance. The cells were transferred into Ham's F12 medium (Nihon Pharmaceutical) containing 10% fetal calf serum, and cultivated for 24 hours. The cells were again took off and centrifuged, and suspended in Ham's F12 medium (Nihon Pharmaceutical) containing 10% fetal calf serum and 500 μg/ml of geneticin (Life Tech Oriental). The suspension was diluted to give 10^4 cells/ml of the suspension, which was inoculated on 96 well plate (Becton Dickinson) to give geneticin resistant cells. The resulting geneticin resistant cells were cultivated in 96 well plate (Becton Dickinson), and cells expressing CCR5 were selected from the geneticin resistant cells. That is, in assay buffer (Ham's F12 medium containing 0.5% BSA and 20 mM HEPES (Wako Pure Chemical, pH7.2) to which was added 200 pM of [^125I]-RANTES (Amersham) as ligand, binding reaction was carried out at room temperature for 40 minutes, and the buffer was washed with cooled PBS. To the buffer was added 50 μl/well of 1M NaOH, and the mixture was stirred. Radioactivity was determined with γ-counter to select CHO/CCR5 cells which specifically bind to the ligand.
(4) Evaluation of Test Compounds Based on CCR5 Antagonistic Activity
The CHO/CCR5 were inoculated on 96 well microplate (5×10^4 cells/well) and cultivated for 24 hours. The medium was removed by means of suction, and to each well was added assay buffer containing Test Compound (191) and then 100 pM of [^125I]-RANTES (Amersham) as ligand. Binding assay was carried out at room temperature for 40 minutes, and assay buffer was removed by means of suction. Each well was washed twice with cooled PBS, and 200 μl of Microscint-20 (Packard Instrument, Inc.) was added to each well.
Take `CC(=O)N1CCC(C(=O)N(CCCN2CCC(Sc3nc4ccccc4s3)CC2)c2ccc(Cl)c(Cl)c2)CC1` [Example 224]: the “Inhibition Rate (%) at 1.0 μM” value was determined as 97%.

Consider `CC(=O)N1CCC(C(=O)N(CCCN2CCN(Cc3c(C)noc3C)CC2)c2cccc(Cl)c2)CC1.O=C(O)C(F)(F)F.O=C(O)C(F)(F)F` [Example 272, 1-Acetyl-N-(3-chlorophenyl)-N-(3-{4-[(3,5-dimethylisoxazol-4-yl)methyl]-1-piperazinyl}propyl)-4-piperidinecarboxamide 2 Trifluoroacetate], for which the “Inhibition Rate (%) at 1.0 μM” value is given as 96%.

Still in this assay, the particulars now being: 1.0 μM test compound, 100 pM [125I]-RANTES, room temperature 40 minutes, read-out: Inhibition Rate (%) at 1.0 μM.
For `CC(=O)N1CCC(C(=O)N(CCCN2CCC(Cc3ccccc3)CC2)c2ccccc2)CC1` [Example 3, 1-Acetyl-N-[3-(4-benzyl-1-piperidinyl)propyl]-N-phenyl-4-piperidinecarboxamide], the inhibition (as a rule, the share of the control response that was lost under treatment) at 1 µM came to 98%. Turning to `CS(=O)(=O)N1CCC(NC(=O)N(CCCN2CCC(Cc3ccccc3)CC2)c2ccccc2)CC1` [Example 15, N-[3-(4-Benzyl-1-piperidinyl)propyl]-N′-[1-(methylsulfonyl)-4-piperidinyl]-N-phenylurea], the inhibition at 1 µM was 97%. For `CC(=O)N1CCC(C(=O)N(CCCN2CCC(Cc3ccc(F)cc3)CC2)c2cccc(Cl)c2)CC1` [Example 18, 1-Acetyl-N-(3-chlorophenyl)-N-{3-[4-(4-fluorobenzyl)-1-piperidinyl]propyl}-4-piperidinecarboxamide], the inhibition at 1 µM stood at 87%. Regarding `CN(C)C(=O)N1CCC(C(=O)N(CCCN2CCC(Cc3ccccc3)CC2)c2ccc(Cl)c(Cl)c2)CC1` [Example 27, N-[3-(4-Benzyl-1-piperidinyl)propyl]-N-(3,4-dichlorophenyl)-1-(N,N-dimethylcarbamoyl)-4-piperidinecarboxamide], the inhibition at 1 µM turned out to be 99%. The same measure, in the same setting: under `CC(=O)N1CCC(C(=O)N(CCCN2CCC(Cc3ccccc3)CC2)Cc2ccc(Cl)cc2)CC1` [Example 40, 1-Acetyl-N-[3-(4-benzyl-1-piperidinyl)propyl]-N-(4-chlorobenzyl)-4-piperidinecarboxamide Trifluoroacetate] stands 98%. With `CC(=O)N1CCC(C(=O)N(CCCN2CCN(Cc3ccc4c(c3)OCO4)CC2)c2cccc(Cl)c2)CC1` [Example 57, 1-Acetyl-N-(3-chlorophenyl)-N-[3-(4-piperonyl-1-piperazinyl)propyl]-4-piperidinecarboxamide Trifluoroacetate], the inhibition at 1 µM was 96%. Turning to `CC(=O)N1CCC(C(=O)N(CCCN2CCC(Sc3cnccn3)CC2)c2cccc(Cl)c2)CC1` [Example 79, 1-Acetyl-N-(3-chlorophenyl)-N-[3-[4-(2-pyrazinylthio)-1-piperidinyl]propyl]-4-piperidinecarboxamide Trifluoroacetate], the inhibition at 1 µM was 90%. For the molecule `CC(=O)N1CCC(C(=O)N(CCCN2CCC(On3nnc4ccccc43)CC2)c2cccc(Cl)c2)CC1` [Example 88, 1-Acetyl-N-(3-chlorophenyl)-N-[3-[4-(1H-benzotriazol-1-yloxy)-1-piperidinyl]propyl]-4-piperidinecarboxamide Trifluoroacetate], the inhibition at 1 µM stood at 99%. `CC(C)S(=O)(=O)N1CCC(C(=O)N(CCCN2CCC(Cc3ccc(F)cc3)CC2)c2ccc(Cl)c(Cl)c2)CC1` [Example 92, N-(3,4-Dichlorophenyl)-N-{3-[4-(4-fluorobenzyl)-1-piperidinyl]propyl}-1-(isopropylsulfonyl)-4-piperidinecarboxamide Trifluoroacetate]: the inhibition at 1 µM stood at 92%. On to `NC(=O)C(=O)N1CCC(C(=O)N(CCCN2CCC(Cc3ccc(F)cc3)CC2)c2ccc(Cl)c(Cl)c2)CC1` [Example 150, N-(3,4-Dichlorophenyl)-N-{3-[4-(4-fluorobenzyl)-1-piperidinyl]propyl}-1-oxamoyl-4-piperidinecarboxamide Trifluoroacetate], for which the inhibition at 1 µM is 98%.

Turning to `CC(=O)Nc1ccc(C(=O)N2CCC(C(=O)N(CCCN3CCC(Cc4ccc(F)cc4)CC3)c3ccc(Cl)c(Cl)c3)CC2)cc1` [Example 158, 1-[4-(Acetylamino)benzoyl]-N-(3,4-dichlorophenyl)-N-{3-[4-(4-fluorobenzyl)-1-piperidinyl]propyl}-4-piperidinecarboxamide Trifluoroacetate], the inhibition at 1 µM came to 97%.

As for `CC(=O)N1CCC(C(=O)N(CCCN2CCC(Cc3nccs3)CC2)c2cccc(Cl)c2)CC1` [Example 168, 1-Acetyl-N-(3-chlorophenyl)-N-{3-[4-(2-thiazolylmethyl)-1-piperidinyl]propyl}-4-piperidinecarboxamide Ditrifluoroacetate], the inhibition at 1 µM stood at 82%. Take `CC(=O)N1CCC(C(=O)N(CCCN2CCC(S(=O)(=O)c3ccc(F)cc3)CC2)c2ccc(Cl)c(Cl)c2)CC1` [Example 189, 1-Acetyl-N-(3,4-dichlorophenyl)-N-{3-[4-(4-fluorophenylsulfonyl)-1-piperidinyl]propyl}-4-piperidinecarboxamide]: the inhibition at 1 µM is 100%. In the case of `CS(=O)(=O)N1CCC(C(=O)N(CCCN2CCC(S(=O)(=O)c3ccc(F)cc3)CC2)c2ccc(Cl)c(Cl)c2)CC1` [Example 190, N-(3,4-Dichlorophenyl)-N-{3-[4-(4-fluorophenylsulfonyl)-1-piperidinyl]propyl}-1-(methylsulfonyl)-4-piperidinecarboxamide], the inhibition at 1 µM is 100%. Turning to `CC(=O)N1CCC(C(=O)N(CCCN2CCC(Nc3ccc(C#N)cc3)CC2)c2ccc(Cl)c(Cl)c2)CC1` [Example 211, 1-Acetyl-N-{3-[4-(4-cyanoanilino)-1-piperidinyl]propyl}-N-(3,4-dichlorophenyl)-4-piperidinecarboxamide], the inhibition at 1 µM stood at 90%. Turning to `CC(=O)N1CCC(C(=O)N(CCCN2CCC(Cc3ccc(S(N)(=O)=O)cc3)CC2)c2ccc(Cl)c(Cl)c2)CC1` [Example 243, 1-Acetyl-N-(3-{4-[4-(aminosulfonyl)benzyl]-1-piperidinyl}propyl)-N-(3,4-dichlorophenyl)-4-piperidinecarboxamide], the inhibition at 1 µM came out at 99%. Still for that read-out and setting: next, `CS(=O)(=O)N1CCC(C(=O)N(CCCN2CCC(Cc3ccc(S(N)(=O)=O)cc3)CC2)c2ccc(Cl)c(Cl)c2)CC1` [Example 244, N-(3-{4-[4-(Aminosulfonyl)benzyl]-1-piperidinyl}propyl)-N-(3,4-dichlorophenyl)-1-(methylsulfonyl)-4-piperidinecarboxamide]: 100%; `COc1ccc(CC2CCN(CCCN(C(=O)C3CCN(C(C)=O)CC3)c3ccc(Cl)c(Cl)c3)CC2)cc1` [Example 249, 1-Acetyl-N-(3,4-dichlorophenyl)-N-{3-[4-(4-methoxybenzyl)-1-piperidinyl]propyl}-4-piperidinecarboxamide]: 94%.

For the molecule `COc1ccc(CC2CCN(CCCN(C(=O)C3CCN(S(C)(=O)=O)CC3)c3ccc(Cl)c(Cl)c3)CC2)cc1` [Example 250, N-(3,4-Dichlorophenyl)-N-{3-[4-(4-methoxybenzyl)-1-piperidinyl]propyl}-1-(methylsulfonyl)-4-piperidinecarboxamide], the inhibition at 1 µM turned out to be 96%.

For `CS(=O)(=O)N1CCC(C(=O)N(CCCN2CCC(Cn3cnc4ccccc43)CC2)c2ccc(Cl)c(Cl)c2)CC1` [Example 261, N-{3-[4-(1H-Benzimidazol-1-ylmethyl)-1-piperidinyl]propyl}-N-(3,4-dichlorophenyl)-1-methylsulfonyl-4-piperidinecarboxamide], the inhibition at 1 µM amounted to 98%.
